Here are results for four compounds from patent publication US4622301A, “2-Oxocarboxylic acid reductase and its preparation” (BASF Aktiengesellschaft, priority 1983, dated 1986).

Molecules are shown by their SMILES.

For assay [1], the system named is 2-oxocarboxylic acid reductase. As to the kind of experiment: Relative rates of reduction of 2-oxocarboxylic acids, enzyme from P. mirabilis. As to conditions: for Relative rates (of reduction): P. mirabilis enzyme, rate for phenylpyruvate taken as 1. The format is biochemical, Proteus mirabilis.
Assay [2] deals with 2-oxocarboxylic acid reductase. As to the kind of experiment: Relative rates of reduction of 2-oxocarboxylic acids, enzyme from P. vulgaris. The format is biochemical, Proteus vulgaris. As to conditions: rate for phenylpyruvate taken as 1. As for the experimental part:
In an electrochemical cell, 25 ml of a solution of 100 mM potassium phosphate buffer at pH 7.0, 4 mM methylviologen and 40 mM phenylpyruvate were reduced with 0.5 mg of 2-oxoacid reductase according to Example 3 at a voltage of -700 mV, against a standard calomel electrode. The current of 5.8 mA decreased sharply after 9 hours. According to HPLC analysis, the reaction solution contained 88% of the phenyllactic acid expected. The solution was acidified to pH 1.8 with dilute sulfuric acid and then extracted with ether. […] A pure commercial preparation of (2S)-sodium phenyllactate gave a value of -21.4°, measured under the same conditions. (R)-mandelic acid and (R)-2-hydroxy-4-methylpentanoate were prepared by a similar method.
3-Oxocarboxylic acids and hydroxyacetone are not reduced.

In assay [3] the test system is 2-oxocarboxylic acid reductase.
The test system of assay [4] is 2-oxocarboxylic acid reductase. As to the kind of experiment: Initial rates with increasing concentrations of oxidized methylviologen, P. vulgaris enzyme. Format: biochemical, Proteus vulgaris. To be noted: 2-oxo-4-methylpentanoate, pH 7.0. Here is the method: (§1) In the presence of increasing concentrations of MV^++ and 0.15 mM MV^+, the initial rates show the following behavior:
(§2) (0.3 ml of 0.1M trisacetate buffer of pH 7.0, 2 μmole of 2-oxo-4-methylpentanoate, the same amount of enzyme in each case, 0.2 mM of reduced methylviologen and the concentrations of oxidized methylviologen stated in the table were incubated in a 2 mm cell.)

The subject of assay [5] is 2-oxocarboxylic acid reductase. Nature of the assay: Initial rates with increasing concentrations of oxidized methylviologen, P. mirabilis enzyme. The format is biochemical, Proteus mirabilis. To be noted: for Initial rate: P. mirabilis, 2-oxo-4-methylpentanoate, pH 7.0. Here is the method: as §1, §2

With `CC(C)(CO)C(=O)C(=O)O` [2-Oxopantoate], the “Relative rates (of reduction)” value in assay [1] came out at 0.07; in assay [2], 0.04.
As for `O=C(O)CN(CCN(CC(=O)O)CC(=O)O)CC(=O)O` [EDTA], the “effect on the activity of the enzyme” value in assay [3] is “not affected”.
For `CC(=O)CO` [Hydroxyacetone], in assay [1], the “Reduction by the enzyme (in words)” value is “not reduced” and the “Relative rates (of reduction)” value was 0.
`C[n+]1ccc(-c2cc[n+](C)cc2)cc1` [MV^++, methylviologen]: the Initial rate in assay [4] (MV++ 0.01 mM) was found to be 13.3 U/ml; in assay [4] (MV++ 0.08 mM), 24.4 U/ml; in assay [4] (MV++ 0.16 mM), 31.3 U/ml; in assay [4] (MV++ 0.75 mM), 41.5 U/ml; in assay [5] (MV++ 0.01 mM), 18.1 U/ml; in assay [5] (MV++ 0.08 mM), 41.9 U/ml. In addition, the Initial rate in assay [5] (MV++ 0.16 mM) was 46.0 U/ml; in assay [5] (MV++ 0.75 mM) it was 62.0 U/ml. Also, the “effect on the activity of the enzyme (in words)” value in assay [5] is recorded as “can be increased”.
